# Measurements taken from ChEMBL document CHEMBL1201862, “PubChem BioAssay data set” (2004).
#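 Briefly, cells in 96-well plates were exposed to five compound concentrations for 48 h, and endpoints were estimated by linear interpolation. The concentration for 50% growth inhibition is given as GI50.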 The source made the active and inactive calls. Rule as the data show it: active = GI50 up to about 1.1 µM and inactive = higher.
# Experiments:
# Assay in all cases: NCI anticancer screen, dose series, 48 h
# [1] = test system: KM-20L2
# [2] = test system: DLD-1
# [3] = test system: DMS-273
# [4] = test system: SNB-78
# [5] = test system: LXFL 529
# [6] = test system: HOP-18
# [7] = test system: M19-MEL
# [8] = test system: RXF 631
# [9] = test system: XF498
Structure (SMILES),GI50 [1],GI50 [2],GI50 [3],GI50 [4],GI50 [5],GI50 [6],GI50 [7],GI50 [8],GI50 [9]
COC(=O)C(C(=O)C(=O)Nc1ccc(C)cc1C)c1csc(-n2nc(-c3ccccc3)cc2-c2ccccc2)n1 (stereo not given),57.5 µM (inactive),> 100 µM (inactive),> 100 µM (inactive),> 100 µM (inactive),> 100 µM (inactive),40.4 µM (inactive),> 100 µM (inactive),> 100 µM (inactive),> 100 µM (inactive)
COc1ccc(C2C(C(=O)O)=C(COC(C)=O)Oc3cc4c(cc32)OCO4)c(OC)c1 (stereo not given),> 100 µM (inactive),> 100 µM (inactive),> 100 µM (inactive),> 100 µM (inactive),–,> 100 µM (inactive),> 100 µM (inactive),> 100 µM (inactive),> 100 µM (inactive)
COc1cc2c(cc1O)CCN[C@@]21CS[C@H]2c3c(OC(C)=O)c(C)c4c(c3C(COC1=O)N1C2C2NC(Cc3cc(C)c(OC)c(O)c32)[C@@H]1C#N)OCO4 (stereo not given in full),< 0.01 µM (active),< 0.01 µM (active),< 0.01 µM (active),–,< 0.01 µM (active),–,< 0.01 µM (active),< 0.01 µM (active),< 0.01 µM (active)
[O-][N+]1=C(c2ccccc2)COc2ccccc21,> 100 µM (inactive),> 100 µM (inactive),> 100 µM (inactive),> 100 µM (inactive),> 100 µM (inactive),> 100 µM (inactive),> 100 µM (inactive),70.1 µM (inactive),–
CC(C)(C)OC(=O)NC1CCCC1=O (stereo not given),> 100 µM (inactive),> 100 µM (inactive),> 100 µM (inactive),> 100 µM (inactive),> 100 µM (inactive),–,> 100 µM (inactive),> 100 µM (inactive),> 100 µM (inactive)
COC(=O)/C([Se]c1c(C)cc(C)cc1C)=C(\[Se]c1c(C)cc(C)cc1C)C(=O)OC,> 100 µM (inactive),> 100 µM (inactive),> 100 µM (inactive),> 100 µM (inactive),> 100 µM (inactive),> 100 µM (inactive),> 100 µM (inactive),> 100 µM (inactive),–
C=CC[C@@]1(C#N)C[C@H](C[C@]2(C#N)C[C@H](CCl)OC(C)(C)O2)OC(C)(C)O1,> 100 µM (inactive),> 100 µM (inactive),> 100 µM (inactive),–,–,> 100 µM (inactive),> 100 µM (inactive),–,81.1 µM (inactive)
CCN(CCCl)CCCCNc1c2ccccc2nc2ccc(OC)cc12,0.238 µM (active),0.0891 µM (active),0.0865 µM (active),0.527 µM (active),0.0923 µM (active),–,0.235 µM (active),0.553 µM (active),–
O=C(O)[C@H](NS(=O)(=O)c1ccc([N+](=O)[O-])cc1)c1ccccc1,> 100 µM (inactive),> 100 µM (inactive),> 100 µM (inactive),> 100 µM (inactive),> 100 µM (inactive),> 100 µM (inactive),> 100 µM (inactive),> 100 µM (inactive),> 100 µM (inactive)
c1ccc(N2N=NC3C4CC(C5c6ccccc6C45)C32)cc1 (stereo not given),32.4 µM (inactive),32.5 µM (inactive),47.1 µM (inactive),43.4 µM (inactive),44 µM (inactive),–,22.7 µM (inactive),34.7 µM (inactive),19.1 µM (inactive)
C/C(=N/NS(=O)(=O)c1ccc([N+](=O)[O-])cc1)c1cccc[n+]1[O-],> 100 µM (inactive),> 100 µM (inactive),> 100 µM (inactive),> 100 µM (inactive),> 100 µM (inactive),> 100 µM (inactive),> 100 µM (inactive),–,> 100 µM (inactive)
COc1cccc2c1c1ccc3c(c1n2C)C(=O)C=CC3=O,63.4 µM (inactive),16.4 µM (inactive),16 µM (inactive),18.7 µM (inactive),12 µM (inactive),14.1 µM (inactive),1.24 µM (inactive),–,15.8 µM (inactive)
COc1cc(C(Cc2ccccc2)NC(C)=O)oc(=O)c1 (stereo not given),> 100 µM (inactive),> 100 µM (inactive),> 100 µM (inactive),–,> 100 µM (inactive),–,> 100 µM (inactive),–,> 100 µM (inactive)
CCOc1cc2ccc3c4cc(OC)c(OC)cc4cnc3c2cc1OCC,> 100 µM (inactive),> 100 µM (inactive),–,> 100 µM (inactive),> 100 µM (inactive),> 100 µM (inactive),> 100 µM (inactive),–,> 100 µM (inactive)
COC(=O)C(=O)C(C(=O)C(=O)Nc1ccccc1C(N)=O)c1nc2ccc(C(=O)c3ccccc3)cc2nc1O (stereo not given),> 100 µM (inactive),–,62.8 µM (inactive),68.7 µM (inactive),44.6 µM (inactive),37.1 µM (inactive),> 100 µM (inactive),> 100 µM (inactive),> 100 µM (inactive)
CNC1=C(C)C(=O)C(C)=C(C(C)(C)CC(=O)n2cc(F)c(=O)[nH]c2=O)C1=O,31.3 µM (inactive),12.8 µM (inactive),23.1 µM (inactive),> 100 µM (inactive),> 89.1 µM (inactive),> 100 µM (inactive),49.7 µM (inactive),23.4 µM (inactive),97.7 µM (inactive)
Cc1ccc2nc(NC(=O)/C(=N\NC(=S)NN)C3C(=O)NC(=S)NC3=O)sc2c1,> 100 µM (inactive),> 100 µM (inactive),> 100 µM (inactive),> 100 µM (inactive),> 100 µM (inactive),80 µM (inactive),–,> 100 µM (inactive),> 100 µM (inactive)
COC1=C(C)C(=O)C2=C(C1=O)C1C3CC4=C(C(=O)C(OC)=C(C)C4=O)C(CNC(=O)C(C)=O)N3C(C#N)C(C2)N1C (stereo not given),0.0149 µM (active),0.00254 µM (active),0.00432 µM (active),0.00617 µM (active),–,0.0553 µM (active),0.00634 µM (active),0.0206 µM (active),–
O=C1C(c2ccc([N+](=O)[O-])cc2)=[N+]([O-])c2ccc([N+](=O)[O-])cc21,–,33.4 µM (inactive),69.7 µM (inactive),79.8 µM (inactive),28.4 µM (inactive),54.8 µM (inactive),27.6 µM (inactive),35.6 µM (inactive),–
C/N=C(\N)c1ccc(NC(=N)c2ccc(C(=N)Nc3ccc(/C(N)=N/C)cc3)cc2)cc1,–,–,> 100 µM (inactive),–,> 100 µM (inactive),–,> 100 µM (inactive),> 100 µM (inactive),–
CC(C)N(C(=O)C12C3C4C5C3C1(C(=O)N(C(C)C)C(C)C)C5(C#N)C42)C(C)C (stereo not given),> 100 µM (inactive),27.1 µM (inactive),45.8 µM (inactive),> 100 µM (inactive),> 100 µM (inactive),> 100 µM (inactive),> 100 µM (inactive),> 100 µM (inactive),> 100 µM (inactive)
O=C1COc2cc3c(cc2N1)SCC(=O)N3,–,> 100 µM (inactive),> 100 µM (inactive),> 100 µM (inactive),> 100 µM (inactive),> 100 µM (inactive),> 100 µM (inactive),> 100 µM (inactive),> 100 µM (inactive)
COC(=O)/C=C/C(=O)C1C(C(=O)OC)C2(C(=O)OC)CCC1(C(=O)OC)N2 (stereo not given),–,> 100 µM (inactive),–,> 100 µM (inactive),–,> 100 µM (inactive),> 100 µM (inactive),–,0.198 µM (active)
NCC1(N2CCOCC2)C2CCCC21CO (stereo not given),–,> 100 µM (inactive),> 100 µM (inactive),> 100 µM (inactive),> 100 µM (inactive),> 100 µM (inactive),> 100 µM (inactive),–,–
C=C1CCC2C(C)(CO)C(O)CCC2(C)C1CC(O)C1=CCOC1=O (stereo not given),47.4 µM (inactive),86.3 µM (inactive),> 100 µM (inactive),–,27 µM (inactive),54.7 µM (inactive),45.5 µM (inactive),30.5 µM (inactive),–
